# From patent US8901177B2, “Method of treating bladder disorders” (Targacept, Inc., priority 2012, dated 2014)
# “Also recorded” adds a separate entry of the source.
# Assays:
# [1] = Clinical trial for treatment of depression: rates of urinary tract infection and urinary retention; format: in vivo, human; conditions: oral tablets 0.1, 0.5, 2 or 4 mg BID
# Protocol: FIG. 24 is a table showing rates of urinary tract infection (UTI) and urinary retention in human patients administered dexmecamylamine in a yet unpublished clinical trial for treatment of depression. Patients received orally administered dexmecamylamine tablets of 0.1 mg, 0.5 mg, 2 mg or 4 mg BID (twice daily). At the end of the trial period, the patients were evaluated and the rates of side effects, including urinary tract infection (UTI) and urinary retention, were recorded.
# NMDA receptor NR1a-NR2A = NMDA receptor NR1a-NR2A (Homo sapiens, UniProt Q05586+Q12879); experiment: Glutamate-evoked currents at NR1a-NR2A receptors in Xenopus oocytes (two electrode voltage-clamp); format: cell-based
# Protocol: All experiments were carried out at receptors expressed in Xenopus oocytes using the method of cDNA expression. Currents evoked by glutamate were recorded using the standard two electrode voltage-clamp configuration (TVEC). Xenopus oocytes were prepared and injected using standard procedures.
# Briefly, ovaries are harvested from Xenopus Laevis females that have been deeply anesthetized and pithed following the animal rights rule from the Geneva canton. A small piece of ovary is isolated for immediate preparation while the remaining part is placed at 4° C. in a sterile Barth solution containing in mM NaCl 88, KCl 1, NaHCO3 2.4, HEPES 10, MgSO4.7H2O 0.82, Ca(NO3)2.4H2O 0.33, CaCl2.6H2O 0.41, at pH 7.4, and supplemented with 20 μg/ml of kanamycine, 100 unit/ml penicillin and 100 μg/ml streptomycin. On the second day following dissociation, oocytes are injected with 2 ng of cDNA per oocyte containing the NR1a-NR2A or NR1a-NR2B using an automated injector (Hogg et al., J. Neurosci. Methods, 2008). […] Cells were held at −80 mV. Data were filtered at 10 Hz, captured at 100 Hz and analyzed using HiQ proprietary data acquisition and analysis software running under Matlab (Mathworks Inc.).
# Oocytes expressing the NR1a-NR2A or NR1a-NR2B receptors were challenged at periodic intervals with a glutamate test pulse. Test drug was then applied during a sustained period and its effects monitored by measuring the amplitude and time course of the glutamate evoked currents.
# Experiments were carried out with the NR1a-NR2A and NR1a-NR2B at least in triplicate. Positive reference compounds (ketamine and MK-801) were tested using the same protocol.
# To further evaluate effects of TC-5214, experiments using sustained exposure to this compound followed by a recovery period were carried out at NR1a-NR2A and NR1a-NR2B receptors. Measurements were made with (nM) 0, 3, 10, 30, 100, 300, TC-5214 and recovery monitored during 10 minutes. In addition, the same experimental protocol will be used with cells in control conditions to assess the stability of the measurements. Effects were measured in at least three cells.
# A use-dependent protocol was used to identify non-competitive inhibition of the receptors. Cells expressing the NMDA receptors were tested for their sensitivity to TC-5214 at 30 nM, using the same protocol as described above. Cells from the same batch were tested in parallel using the same incubation time with an identical concentration of TC-5214 (30 nM) but in absence of pulses during the incubation time with the compound. Two glutamate pulses were applied at the end of the incubation time, and recovery monitored as for the control conditions.
# [2] = test system: bladder function in anesthetized rats; experiment: Intravesical model in anesthetized rats (increased bladder contraction frequency), cystometry; format: in vivo, rat; conditions: 1 μM and 10 μM intravesical infusion
# Protocol: Female Sprague Dawley rats (200-290 g) from Charles River France, housed in 3-4 rats per cage were anesthetized with urethane (1.2 g/kg) s.c., 3 mL/kg). A polyethylene catheter was implanted into the bladder through the dome. Ureters were tied and cut. Intravesical infusion periods with saline followed by an intravesical infusion period with one of the test compounds, hexamethonium (10 μM) or dexmecamylamine (1 and 10 μM), are depicted in FIG. 7.
# The intravesical anesthetized rat model is a model of increased bladder contraction frequency. The model is a “simplified” well established model used to evaluate OAB agents, recognizing that there are decreased inputs from cortical centers. This is the first known experiment using the intravesical anesthetized rat model of increased bladder contraction frequency to test dexmecamylamine for potential efficacy in treating OAB.
# [3] = target: T1, α6-containing nicotinic receptors (Homo sapiens, UniProt Q15825); experiment: α6-containing nicotinic receptors expressed in oocytes, stimulated with acetylcholine; format: cell-based; conditions: acetylcholine alone or with increasing concentrations
# T1 construct: expressed in transfected cells; host or cells: oocytes
# [4] = Urinary excretion and bladder/urine concentration after oral dosing, clinical program for depression; format: in vivo, human; conditions: for excretion unchanged in the urine: human, in vivo
# Protocol: One aspect of the present invention is the use of dexmecamylamine as an oral agent for intravesical drug delivery. Oral doses (up to 4 mg BID) of dexmecamylamine evaluated during clinical studies for depression produced concentrations in the bladder in excess of 10 μM. […] Nicotinic receptors, including α3, α7, and β4, are expressed in the bladder urothelium itself. Agents that block nicotinic receptors in the bladder, such as hexamethonium, decrease bladder contractions and may block sensation of urgency. Inhibition of the α3 receptor diminishes bladder contraction frequency and afferent signaling to the brain (via P2X), thereby blocking or reducing the sensation of urgency. […] (Xu et al., Megacystis, mydriasis, and ion channel defect in mice lacking the α3 neuronal nicotinic acetylcholine receptor, Proc. Natl. Acad. Sci., Vol. 96, pp. 5746-5751, May 1999.)
# During the dexmecamylamine clinical program for depression, including the initial phase 1 study (conducted by Targacept), ≧90% of orally administered dexmecamylamine was excreted unchanged in the […].
# [5] = Mouse carcinogenicity studies; format: in vivo; conditions: much higher doses and concentrations than in the clinical program
# Excerpt: Further, the Summary Basis of Approval for Detrol® indicates similar (lower rates) of bladder dilatation, as is noted in dexmecamylamine's carcinogenicity studies. Urinary retention, and concomitant urinary tract infection, is not anticipated to be a therapy-limiting side effect for relatively low doses and concentrations of dexmecamylamine (FIG. 24).
# Chain of NMDA receptor NR1a-NR2A (Q12879 23-1464, other chains not shown): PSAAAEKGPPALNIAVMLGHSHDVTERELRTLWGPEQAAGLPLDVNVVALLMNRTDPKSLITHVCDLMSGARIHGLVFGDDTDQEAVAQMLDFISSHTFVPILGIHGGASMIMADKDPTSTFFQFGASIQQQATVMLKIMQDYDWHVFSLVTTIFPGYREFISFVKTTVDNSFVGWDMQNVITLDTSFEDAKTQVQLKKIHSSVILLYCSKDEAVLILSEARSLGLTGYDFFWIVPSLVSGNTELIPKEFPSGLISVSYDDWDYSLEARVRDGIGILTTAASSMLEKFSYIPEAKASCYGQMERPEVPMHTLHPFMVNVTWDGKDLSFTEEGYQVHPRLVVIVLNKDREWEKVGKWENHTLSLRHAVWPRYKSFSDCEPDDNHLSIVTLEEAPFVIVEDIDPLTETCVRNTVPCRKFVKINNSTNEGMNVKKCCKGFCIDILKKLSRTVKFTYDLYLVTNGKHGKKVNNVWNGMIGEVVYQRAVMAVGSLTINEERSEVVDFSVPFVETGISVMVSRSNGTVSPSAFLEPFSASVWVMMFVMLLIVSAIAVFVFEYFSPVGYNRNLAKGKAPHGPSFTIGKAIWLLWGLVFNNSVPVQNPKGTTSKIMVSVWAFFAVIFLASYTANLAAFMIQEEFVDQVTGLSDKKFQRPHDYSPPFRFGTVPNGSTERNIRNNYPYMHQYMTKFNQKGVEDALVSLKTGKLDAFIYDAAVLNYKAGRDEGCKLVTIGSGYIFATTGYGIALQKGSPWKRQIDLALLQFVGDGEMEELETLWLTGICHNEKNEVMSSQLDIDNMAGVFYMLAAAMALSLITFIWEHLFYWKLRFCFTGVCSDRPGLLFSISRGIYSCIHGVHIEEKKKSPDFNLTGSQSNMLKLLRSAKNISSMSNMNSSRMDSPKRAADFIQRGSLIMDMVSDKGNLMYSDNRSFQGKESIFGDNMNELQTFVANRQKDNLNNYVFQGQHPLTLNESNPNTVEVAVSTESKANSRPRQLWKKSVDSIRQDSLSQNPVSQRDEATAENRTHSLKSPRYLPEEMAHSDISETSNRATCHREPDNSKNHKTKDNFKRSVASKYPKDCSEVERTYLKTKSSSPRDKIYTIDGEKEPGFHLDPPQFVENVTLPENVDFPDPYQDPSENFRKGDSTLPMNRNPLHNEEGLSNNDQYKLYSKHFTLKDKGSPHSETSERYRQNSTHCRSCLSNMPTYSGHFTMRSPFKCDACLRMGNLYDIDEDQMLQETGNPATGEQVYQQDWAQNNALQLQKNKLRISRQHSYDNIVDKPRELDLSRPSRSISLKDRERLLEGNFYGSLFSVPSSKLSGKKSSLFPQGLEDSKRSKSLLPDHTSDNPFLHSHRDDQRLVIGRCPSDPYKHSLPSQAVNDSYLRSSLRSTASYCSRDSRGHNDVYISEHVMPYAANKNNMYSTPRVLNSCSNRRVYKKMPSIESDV
# T1 sequence (Q15825 26-494): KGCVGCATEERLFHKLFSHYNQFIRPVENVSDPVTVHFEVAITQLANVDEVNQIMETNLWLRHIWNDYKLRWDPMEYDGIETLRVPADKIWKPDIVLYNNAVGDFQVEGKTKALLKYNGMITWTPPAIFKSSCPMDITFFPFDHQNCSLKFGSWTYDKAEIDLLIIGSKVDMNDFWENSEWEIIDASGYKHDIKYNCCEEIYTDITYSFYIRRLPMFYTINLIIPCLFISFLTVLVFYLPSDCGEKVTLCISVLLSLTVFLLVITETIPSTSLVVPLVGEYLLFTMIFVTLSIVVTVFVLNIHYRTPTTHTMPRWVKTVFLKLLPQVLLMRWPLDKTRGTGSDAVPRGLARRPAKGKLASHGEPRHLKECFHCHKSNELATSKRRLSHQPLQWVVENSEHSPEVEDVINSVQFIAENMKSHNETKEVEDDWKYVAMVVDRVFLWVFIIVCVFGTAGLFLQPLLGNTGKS
compound,measurement,setting,value
"CNC1(C)[C@H]2CCC(C2)C1(C)C (stereo partly drawn) [TC-5214, (S)—N,2,3,3-tetramethylnorbornan-2-amine]",side effects due to urinary retention,[1],without therapy-limiting side effects due to urinary retention
same,extent of inhibition over concentration range (FIG. 22),"NMDA receptor NR1a-NR2A; 3, 10, 30, 100, 300 nM, Glutamate 10 μM-Glycine 1 μM",complete inhibition
same,concentration at which it potently inhibits,NMDA receptor NR1a-NR2A; FIG. 23 legend,10 to 30 nM
same,recovery following wash-out,NMDA receptor NR1a-NR2A; after sustained exposure,clear evidence for recovery
same,bladder capacity (BC),[2],statistically significant increase
same,inter-contraction interval (ICI),[2],statistically significant increase
same,micturition frequency (MF),[2],statistically significant decrease
same,bladder contraction amplitude (AM),[2]; listed as dexmecamylamine,no significant decrease; also recorded: no significant change
same,NOEL,30 days oral,1 mg/kg/day
same,mortality and histopathologic changes,doses up to and including 50 mg/kg/day,did not produce any mortalities nor any histopathologic changes
same,sensitivity of α6-containing nicotinic receptors,[3],sensitive
same,expected mean concentrations (urine) in humans,[4]; 0.5 mg BID dosing,approximately 3 μM
same,mean urine concentrations,[4]; 1 mg BID,approximately 6 μM
same,excretion unchanged in the urine,[4],eliminated unchanged in the urine
same,excretion unchanged in the urine,[4]; listed as dexmecamylamine,excreted almost entirely unchanged in the urine
same,concentrations in the bladder,[4]; oral doses up to 4 mg BID,> 10 µM
same,orally administered dose excreted unchanged in the bladder,"[4]; oral, clinical program for depression incl. initial phase 1 study",≥ 90%
same,urinary retention,[5],urinary retention was noted
